Assay results published in patent US12594263B2, “CBL inhibitors and compositions for expansion of immune cells” (Nurix Therapeutics, Inc., priority 2019, dated 2026).
Entries after “also recorded” stand apart in the source; their conditions may differ.

Columns and labels:
[1] = tested on: human tumor-infiltrating lymphocytes (TIL); experiment: Expansion of TIL ex vivo from human tumor fragments (pre-REP, 24-well plate); type: cell-based; conditions: for Percentage of total cell number relative to IL-2 alone on day 17: alone or with IL-2 6000 IU/mL
Experimental: Samples of human ovarian and colon tumors were obtained from the Cooperative Human Tissue Network (CHTN, c/o Vanderbilt University Medical Center, Nashville, Tenn.). Solid tumor specimens were carefully dissected free of surrounding fatty and necrotic areas. The tumors were sliced into 8 mm^3 (2×2×2 mm^3) fragments under sterile conditions using a scalpel and a scalpel holder.
The plates were placed in a humidified 37° C. incubator with 5% CO2. Half of the medium was replaced every two days after culture initiation. […] Subsequently, half the media was replaced thrice weekly, cultures were split to maintain a cell density of 1×10^6 cells/mL. […] Mitochondrial markers including, Mitotracker, Mitoprobe, and 2-NBDG may also be used to assess differentiation and/or activation of cells.

[2] = tested on: human tumor-infiltrating lymphocytes (TIL); experiment: Rapid Expansion Protocol (REP) of TIL; type: cell-based; conditions: alone or with IL-2 6000 IU/mL
Experimental: PBMC, OKT3 antibody (30 ng/mL), complete medium (“CM”), AIM V media (GIBCO/BRL), and TIL effector cells were combined, mixed, and aliquoted to a 75 cm^2 tissue culture flask. Flasks were incubated upright at 37° C. in 5% CO2. […] About 14 days after initiation of the REP, cells were harvested and cryopreserved for future experimental analysis.

OT-1 CD8+ T cells = experiment: Ex vivo expansion and immunophenotyping of OT-1 CD8+ T cells; type: cell-based, mouse; conditions: 1 μM, three days, plate-bound anti-CD3
From the text: Antigen specific T cells from transgenic mice can be leveraged as a model for CAR T or TIL expansion ex vivo with a Cbl inhibitor. The OT-1 transgenic animals, that are commercially available, have CD8 T cells that recognize OVA peptide aa 257-264 when presented by the MHC I molecule. CD8+ T cells from OT-1 mice were isolated from a single cell suspension of splenocytes by negative selection (StemCell Technologies cat #19853 EasySep™ Mouse CD8+ T Cell Isolation Kit). Cell were then resuspended in complete media (RPMI1640, 10% heat inactivated FBS, 1× Penicillin/Streptomycin, 1× Glutamine and β-mercaptoethanol) at concentration of 0.5×10^6 per mL. Six well tissue culture plates (Falcon) were coated with 2 ug/mL of anti-mouse CD3 (Bio Xcell Cat #BE0001-1-R100 mg InVivoMAb anti-mouse CD3ε Clone: 145-2C11) for >3 hrs at 37° C. and washed with PBS (MediaTech) prior to cell addition. […] Following three days of OT-1 T cell activation and expansion the cells were collected, counted and immunophenotyped by flow cytometry by measuring expression of differentiation and additional T cell makers including: CD3, CD4, CD8, CD45, CD25, Granzyme B, CD107a, CD127, PD-1, TIM3, LAG3, KLRG-1, ICOS, TCF1, Ki67, T-bet and FOXP3.

E.G7-OVA tumors = experiment: Adoptive transfer of ex vivo expanded OT-1 cells into E.G7-OVA tumor-bearing mice: tumor volume and survival; type: in vivo, mouse
Experimental: (§1) Dead cells were removed (Miltenyi Biotec Cat #130-090-101) prior to transfer in vivo to monitor their trafficking and function in an EG.7 lymphoma model, which expresses the OVA antigen. Approximately five million cells per mouse were transferred to mice having an average tumor burden of about 70 mm^3. Following in vivo transfer of the OT-1 cells, antitumor response was monitored over time and the quality and quantity of immune response were assessed at various time points.
(§2) The expanded OT-1 cells were characterized by FACS analysis and transferred into E.G7-OVA mice, which bear ovalbumin (OVA) expressing tumors. Following in vivo transfer of expanded OT-1 cells, antitumor response was monitored over time and the quality and quantity of immune response was assessed at various time points. Analysis included FACS analysis on blood, tumor, and spleen samples. Analysis also included re-stimulation of splenocytes with OVA Class I peptide to evaluate the multifunctionality of the antigen-specific effector T cells.
(§3) On Day 0, E.G7-OVA cells were implanted into each mouse. On Day 5, approximately 5×10^6 in vitro expanded OT-1 cells were injected into the tail of each mouse. On Day 9, blood was analyzed by FACS. On Day 14, blood, tumor and spleen samples were analyzed by FACS. On Day 27, blood was analyzed by FACS. Tumor volume was measured approximately every five days through about 50 days post implant.

OT-1 cells = experiment: In vivo frequency, persistence and exhaustion markers of transferred OT-1 cells (blood, spleen, tumor, FACS); parameters: species or system mouse
Experimental: as §1, §2, §3
OT-1 cells were expanded according to the previous examples and administered to E.G7-OVA mice, which bear ovalbumin (OVA) expressing tumors. The cells were evaluated for their in vivo properties.
Expanded OT-1 cells were assessed in blood 4 days and 22 days after transfer.
Expanded OT-1 cells were assessed in tumors 4 days after transfer.

[3] = Compound stability in complete RPMI with 10% human serum (mass spectrometry); type: physicochemical
Experimental: To assess compound stability, at day 1, 1 μM compound 103 or DMSO was added to complete RMPI containing 10% human serum and stored at either 4° C., 22° C. or 37° C. over an 11 day time period. Concentration of compound 103 was assessed at each indicated timepoint and storage temperature by mass spectrometry. Compound 103 was stable for at least 11 days in RPMI medium (FIG. 33).

[4] = second study, anti-CD3 stimulated OT-1 cells

For C[C@@H]1CN(Cc2cc3c(c(C(F)(F)F)c2)CN(c2cccc(C4(Cc5nncn5C)COC4)c2)C3=O)CCC1(F)F [Compound 103], the “Expansion of TIL in the absence of IL-2” value ([1]; 0.1-10 μM Cbl inhibitor, no IL-2) was “considerable expansion of TIL”, the “Percentage of total cell number relative to IL-2 alone on day 17” value ([1]; TIL1 (ovary), 0.1 μM Cbl-i) was 90% and the “Percentage of total cell number relative to IL-2 alone on day 17” value ([1]; TIL1 (ovary), 1.0 μM Cbl-i) was 75%. For the same compound, the “Percentage of total cell number relative to IL-2 alone on day 17” value ([1]; TIL1 (ovary), 10 μM Cbl-i) was 60%, the “Percentage of total cell number relative to IL-2 alone on day 17” value ([1]; TIL2 (ovary), 0.1 μM Cbl-i) was 30% and the “Percentage of total cell number relative to IL-2 alone on day 17” value ([1]; TIL2 (ovary), 1.0 μM Cbl-i) was 26%. The “Percentage of total cell number relative to IL-2 alone on day 17” value ([1]; TIL2 (ovary), 10 μM Cbl-i) was 22%, the “Percentage of total cell number relative to IL-2 alone on day 17” value ([1]; TIL3 (ovary), 0.1 μM Cbl-i) was 30% and the “Percentage of total cell number relative to IL-2 alone on day 17” value ([1]; TIL3 (ovary), 1.0 μM Cbl-i) was 43%. The “Percentage of total cell number relative to IL-2 alone on day 17” value ([1]; TIL3 (ovary), 10 μM Cbl-i) was 16%, the “Percentage of total cell number relative to IL-2 alone on day 17” value ([1]; TIL4 (colon), 0.1 μM Cbl-i) was 45% and the “Percentage of total cell number relative to IL-2 alone on day 17” value ([1]; TIL4 (colon), 1.0 μM Cbl-i) was 58%. The “Percentage of total cell number relative to IL-2 alone on day 17” value ([1]; TIL4 (colon), 10 μM Cbl-i) was 54%, the “Percentage of total cell number relative to IL-2 alone on day 17” value ([1]; TIL5 (ovary), 0.1 μM Cbl-i) was 50% and the “Percentage of total cell number relative to IL-2 alone on day 17” value ([1]; TIL5 (ovary), 1.0 μM Cbl-i) was 70%. For the same compound, the “Percentage of total cell number relative to IL-2 alone on day 17” value ([1]; TIL5 (ovary), 10 μM Cbl-i) was 90%, the “Percentage of total cell number relative to IL-2 alone on day 17” value ([1]; TIL6 (ovary), 0.1 μM Cbl-i) was 93% and the “Percentage of total cell number relative to IL-2 alone on day 17” value ([1]; TIL6 (ovary), 1.0 μM Cbl-i) was 87%. For the same compound, the “Percentage of total cell number relative to IL-2 alone on day 17” value ([1]; TIL6 (ovary), 10 μM Cbl-i) was 80%, the “Percentage of total cell number relative to IL-2 alone on day 42 (Pre-REP and REP)” value ([2]; TIL1 (ovary), 0.1 μM Cbl-i) was 40% and the “Percentage of total cell number relative to IL-2 alone on day 42 (Pre-REP and REP)” value ([2]; TIL1 (ovary), 1.0 μM Cbl-i) was 42%. The “Percentage of total cell number relative to IL-2 alone on day 42 (Pre-REP and REP)” value ([2]; TIL1 (ovary), 10 μM Cbl-i) was 32%, the “Percentage of total cell number relative to IL-2 alone on day 42 (Pre-REP and REP)” value ([2]; TIL3 (ovary), 1.0 μM Cbl-i) was 150% and the “Percentage of total cell number relative to IL-2 alone on day 42 (Pre-REP and REP)” value ([2]; TIL4 (colon), 0.1 μM Cbl-i) was 80%. The “Percentage of total cell number relative to IL-2 alone on day 42 (Pre-REP and REP)” value ([2]; TIL4 (colon), 1.0 μM Cbl-i) was 80%, the “Percentage of total cell number relative to IL-2 alone on day 42 (Pre-REP and REP)” value ([2]; TIL6 (ovary), 0.1 μM Cbl-i) was 51% and the “Percentage of total cell number relative to IL-2 alone on day 42 (Pre-REP and REP)” value ([2]; TIL6 (ovary), 1.0 μM Cbl-i) was 63%. The “Percentage of total cell number relative to IL-2 alone on day 42 (Pre-REP and REP)” value ([2]; TIL6 (ovary), 10 μM Cbl-i) was 49%, the “Effector function of expanded OT-1 cells (granzyme and T-bet)” value (OT-1 CD8+ T cells) was “trend of increased effector function” and the “Anti-tumor phenotype of transferred T cells” value (E.G7-OVA tumors; 3-day ex vivo exposure, alone or in combination with IL-2) was “conferred a lasting anti-tumor phenotype for over a month”. The “Potency of expanded CD8+ OT-1 cells (tumor volume, FIGS. 11A and 11B)” value (E.G7-OVA tumors; expansion at 1 μM, IL-2 300 IU, E.G7-OVA mice) was “at least as potent as CD8+OT-1 cells expanded with IL-2”, the “Rejection of established tumors by expanded OT-1 cells (FIG. 9)” value (E.G7-OVA tumors; mice subcutaneously implanted with E.G7-OVA cells) was “potent effectors capable of rejecting established tumors” and the “Long-term survival (FIG. 12B)” value (E.G7-OVA tumors; [4]) was “improved long-term survival”. For the same compound, the “Potency of expanded OT-1 cells, inhibition of tumor growth (FIG. 12A)” value (E.G7-OVA tumors; [4]) was “increased potency compared to IL-2 expanded cells; also recorded: increased potency compared to TL-2 expanded cells”, the “Cells expressing stem markers TCF1+, PD-1+ and TIM-3+” value (OT-1 cells; OT-1 cells after transfer) was “greater percentage of cells that expressed stem markers” and the “Frequency of OT-1 cells in total CD8+ T cells and CD45+ cells and persistence” value (OT-1 cells; blood, 4 or 9 days after transfer (FIG. 10)) was “higher frequency in total CD8+ T cells and CD45+ cells and in vivo persistence in the blood”. For the same compound, the “Frequency of OT-1 cells in total CD45+ cells and persistence” value (OT-1 cells; blood, 4 days and 22 days after transfer (FIGS. 13A, 13B)) was “higher frequency in total CD45+ cells and persisted longer than cells expanded with IL-2 alone”, the “Expression of exhaustion markers PD1, TIM3, LAG3” value (OT-1 cells; tumor, versus IL-2 alone (FIGS. 14B, 14C)) was “lower level of expression of exhaustion markers” and the “Tumor infiltration, frequency of OT-1 cells in total CD45+ cells” value (OT-1 cells; tumors, 4 days after transfer (FIG. 14A)) was “increased ability to infiltrate the tumor”. The “Stability in RPMI medium” value ([3]; 1 μM, complete RPMI with 10% human serum, 4° C., 22° C. or 37° C. (FIG. 33)) was “at least 11 days” and the “Stability at multiple temperatures (figure legend)” value ([3]; 4° C.-37° C., FIG. 33) was “stable at multiple temperatures (4° C.-37° C.) over an 11 day period”.
